In patent US20260042764A1, “COMPOSITIONS AND METHODS FOR INHIBITION OF KRAS” (TheRas, Inc., priority 2022, published 2026):
pIC50: −log10 of the molar value.

Each compound was assayed against T1, Avi-KRAS G12D (1-169) GppNHp/RAF1 RBD-3xFLAG (52-151) (Homo sapiens, UniProt P01116, G12D) (assay: Raf1-KRAS G12D-GppNHP disruption HTRF assay (Biological Example 1)). Conditions: KRAS G12D-GppNHp/RAF1 RBD HTRF.
T1 construct: Avi-KRAS G12D (1-169)
Format: binding
In short: (§1)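 Measured with a KRAS/RAF1 HTRF assay at pH 7.5 in 10% DMSO, with two 1 h room-temperature incubations with shaking.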

T1 sequence (P01116 1-169 isoform P01116-2 G12D): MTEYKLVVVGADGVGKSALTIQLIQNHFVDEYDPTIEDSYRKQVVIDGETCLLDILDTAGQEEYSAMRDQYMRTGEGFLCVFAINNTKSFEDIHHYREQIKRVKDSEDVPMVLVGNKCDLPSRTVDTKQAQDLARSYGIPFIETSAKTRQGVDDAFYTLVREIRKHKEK

SMILES | pIC50
C[C@@H]1C[C@H](N(C)c2nc(OC[C@@]34CCCN3C[C@H](F)C4)nc3c(F)c(-c4ccc(F)c5sc(N)c(C#N)c45)c(C(F)(F)F)cc23)CN1C(=O)C1CC1 [Compound 443] | 6.00 to 7.00
CCC(=O)N1CC(N(C)c2nc(OCC34CCCN3CC(F)C4)nc3c(F)c(-c4ccc(F)c5sc(N)c(C#N)c45)c(C(F)(F)F)cc23)CC1C (stereo not drawn) [Compound 444] | 6.00 to 7.00
CN(C)C(=O)c1nc2c(s1)CCN(c1nc(OCC34CCCN3CC(F)C4)nc3c(F)c(-c4ccc(F)c5sc(N)c(C#N)c45)c(C(F)(F)F)cc13)C2 (stereo not drawn) [Compound 445] | 5.00 to 6.00
CCN(c1nc(OC[C@@]23CCCN2C[C@H](F)C3)nc2c(F)c(-c3ccc(F)c4sc(N)c(C#N)c34)c(C(F)(F)F)cc12)[C@H]1C[C@@H](C)N(C(C)=O)C1 [Compound 446] | > 7.00
CC(C)C(=O)N1C[C@@H](N(C)c2nc(OC[C@@]34CCCN3C[C@H](F)C4)nc3c(F)c(-c4ccc(F)c5sc(N)c(C#N)c45)c(C(F)(F)F)cc23)C[C@H]1C [Compound 448] | 6.00 to 7.00
N#Cc1c(N)sc2c(F)ccc(-c3c(C(F)(F)F)cc4c(N5CCc6[nH]ncc6C5)nc(OCC56CCCN5CC(F)C6)nc4c3F)c12 (stereo not drawn) [Compound 449] | 5.00 to 6.00
CN(c1nc(OC[C@@]23CCCN2C[C@H](F)C3)nc2c(F)c(-c3ccc(F)c4sc(N)c(C#N)c34)c(C(F)(F)F)cc12)[C@@H]1C[C@@H]2COC(=O)N2C1 [Compound 450] | 6.00 to 7.00

The compounds below were run against T2, Avi-KRAS G12R (1-169) GppNHp/RAF1 RBD-3xFLAG (52-151) (Homo sapiens, UniProt P01116, G12R) (assay: Raf1-KRAS G12R-GppNHP disruption HTRF assay (Biological Example 1)). Conditions: KRAS G12R-GppNHp/RAF1 RBD HTRF.
T2 construct: Avi-KRAS G12R (1-169)
T2 sequence (P01116 1-169 isoform P01116-2 G12R): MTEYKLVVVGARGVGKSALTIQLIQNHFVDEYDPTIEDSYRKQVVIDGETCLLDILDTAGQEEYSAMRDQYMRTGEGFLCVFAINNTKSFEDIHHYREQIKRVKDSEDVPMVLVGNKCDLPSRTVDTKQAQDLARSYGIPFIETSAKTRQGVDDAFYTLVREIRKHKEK
Format: binding
In short: as §1

SMILES | pIC50
C[C@@H]1C[C@H](N(C)c2nc(OC[C@@]34CCCN3C[C@H](F)C4)nc3c(F)c(-c4ccc(F)c5sc(N)c(C#N)c45)c(C(F)(F)F)cc23)CN1C(=O)C1CC1 [Compound 443] | 6.00 to 7.00
CCC(=O)N1CC(N(C)c2nc(OCC34CCCN3CC(F)C4)nc3c(F)c(-c4ccc(F)c5sc(N)c(C#N)c45)c(C(F)(F)F)cc23)CC1C (stereo not drawn) [Compound 444] | 5.00 to 6.00
CN(C)C(=O)c1nc2c(s1)CCN(c1nc(OCC34CCCN3CC(F)C4)nc3c(F)c(-c4ccc(F)c5sc(N)c(C#N)c45)c(C(F)(F)F)cc13)C2 (stereo not drawn) [Compound 445] | < 5.00
CCN(c1nc(OC[C@@]23CCCN2C[C@H](F)C3)nc2c(F)c(-c3ccc(F)c4sc(N)c(C#N)c34)c(C(F)(F)F)cc12)[C@H]1C[C@@H](C)N(C(C)=O)C1 [Compound 446] | 6.00 to 7.00
CC(C)C(=O)N1C[C@@H](N(C)c2nc(OC[C@@]34CCCN3C[C@H](F)C4)nc3c(F)c(-c4ccc(F)c5sc(N)c(C#N)c45)c(C(F)(F)F)cc23)C[C@H]1C [Compound 448] | 5.00 to 6.00
N#Cc1c(N)sc2c(F)ccc(-c3c(C(F)(F)F)cc4c(N5CCc6[nH]ncc6C5)nc(OCC56CCCN5CC(F)C6)nc4c3F)c12 (stereo not drawn) [Compound 449] | 5.00 to 6.00
CN(c1nc(OC[C@@]23CCCN2C[C@H](F)C3)nc2c(F)c(-c3ccc(F)c4sc(N)c(C#N)c34)c(C(F)(F)F)cc12)[C@@H]1C[C@@H]2COC(=O)N2C1 [Compound 450] | 6.00 to 7.00

The compounds below were run against T3, Avi-KRAS G12V (1-169) GppNHp/RAF1 RBD-3xFLAG (52-151) (Homo sapiens, UniProt P01116, G12V) (assay: Raf1-KRAS G12V-GppNHP disruption HTRF assay (Biological Example 1)). Conditions: KRAS G12V-GppNHp/RAF1 RBD HTRF.
T3 construct: Avi-KRAS G12V (1-169)
T3 sequence (P01116 1-169 isoform P01116-2 G12V): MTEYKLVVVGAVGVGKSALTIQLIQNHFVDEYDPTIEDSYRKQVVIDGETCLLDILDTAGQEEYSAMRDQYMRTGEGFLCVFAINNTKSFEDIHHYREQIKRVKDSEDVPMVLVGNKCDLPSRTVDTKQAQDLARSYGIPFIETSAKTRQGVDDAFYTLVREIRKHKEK
Format: binding
In short: as §1

SMILES | pIC50
C[C@@H]1C[C@H](N(C)c2nc(OC[C@@]34CCCN3C[C@H](F)C4)nc3c(F)c(-c4ccc(F)c5sc(N)c(C#N)c45)c(C(F)(F)F)cc23)CN1C(=O)C1CC1 [Compound 443] | 6.00 to 7.00
CCC(=O)N1CC(N(C)c2nc(OCC34CCCN3CC(F)C4)nc3c(F)c(-c4ccc(F)c5sc(N)c(C#N)c45)c(C(F)(F)F)cc23)CC1C (stereo not drawn) [Compound 444] | 5.00 to 6.00
CN(C)C(=O)c1nc2c(s1)CCN(c1nc(OCC34CCCN3CC(F)C4)nc3c(F)c(-c4ccc(F)c5sc(N)c(C#N)c45)c(C(F)(F)F)cc13)C2 (stereo not drawn) [Compound 445] | < 5.00
CCN(c1nc(OC[C@@]23CCCN2C[C@H](F)C3)nc2c(F)c(-c3ccc(F)c4sc(N)c(C#N)c34)c(C(F)(F)F)cc12)[C@H]1C[C@@H](C)N(C(C)=O)C1 [Compound 446] | 6.00 to 7.00
CC(C)C(=O)N1C[C@@H](N(C)c2nc(OC[C@@]34CCCN3C[C@H](F)C4)nc3c(F)c(-c4ccc(F)c5sc(N)c(C#N)c45)c(C(F)(F)F)cc23)C[C@H]1C [Compound 448] | 5.00 to 6.00
N#Cc1c(N)sc2c(F)ccc(-c3c(C(F)(F)F)cc4c(N5CCc6[nH]ncc6C5)nc(OCC56CCCN5CC(F)C6)nc4c3F)c12 (stereo not drawn) [Compound 449] | 5.00 to 6.00
CN(c1nc(OC[C@@]23CCCN2C[C@H](F)C3)nc2c(F)c(-c3ccc(F)c4sc(N)c(C#N)c34)c(C(F)(F)F)cc12)[C@@H]1C[C@@H]2COC(=O)N2C1 [Compound 450] | 6.00 to 7.00

Each compound was assayed against T4, Avi-KRAS WT (1-169) GppNHp/RAF1 RBD-3xFLAG (52-151) (Homo sapiens, UniProt P01116) (assay: Raf1-KRAS WT-GppNHP disruption HTRF assay (Biological Example 1)). Conditions: KRAS WT-GppNHp/RAF1 RBD HTRF.
T4 construct: Avi-KRAS WT (1-169)
T4 sequence (P01116 1-169 isoform P01116-2): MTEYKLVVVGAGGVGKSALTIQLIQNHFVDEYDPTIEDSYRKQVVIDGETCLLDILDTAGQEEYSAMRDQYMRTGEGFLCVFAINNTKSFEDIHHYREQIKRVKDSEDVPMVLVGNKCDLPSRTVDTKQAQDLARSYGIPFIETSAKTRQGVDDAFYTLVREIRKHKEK
Format: binding
In short: as §1

SMILES | pIC50
C[C@@H]1C[C@H](N(C)c2nc(OC[C@@]34CCCN3C[C@H](F)C4)nc3c(F)c(-c4ccc(F)c5sc(N)c(C#N)c45)c(C(F)(F)F)cc23)CN1C(=O)C1CC1 [Compound 443] | 6.00 to 7.00
CCC(=O)N1CC(N(C)c2nc(OCC34CCCN3CC(F)C4)nc3c(F)c(-c4ccc(F)c5sc(N)c(C#N)c45)c(C(F)(F)F)cc23)CC1C (stereo not drawn) [Compound 444] | 6.00 to 7.00
CN(C)C(=O)c1nc2c(s1)CCN(c1nc(OCC34CCCN3CC(F)C4)nc3c(F)c(-c4ccc(F)c5sc(N)c(C#N)c45)c(C(F)(F)F)cc13)C2 (stereo not drawn) [Compound 445] | < 5.00
CCN(c1nc(OC[C@@]23CCCN2C[C@H](F)C3)nc2c(F)c(-c3ccc(F)c4sc(N)c(C#N)c34)c(C(F)(F)F)cc12)[C@H]1C[C@@H](C)N(C(C)=O)C1 [Compound 446] | 6.00 to 7.00
CC(C)C(=O)N1C[C@@H](N(C)c2nc(OC[C@@]34CCCN3C[C@H](F)C4)nc3c(F)c(-c4ccc(F)c5sc(N)c(C#N)c45)c(C(F)(F)F)cc23)C[C@H]1C [Compound 448] | 6.00 to 7.00
N#Cc1c(N)sc2c(F)ccc(-c3c(C(F)(F)F)cc4c(N5CCc6[nH]ncc6C5)nc(OCC56CCCN5CC(F)C6)nc4c3F)c12 (stereo not drawn) [Compound 449] | 5.00 to 6.00
CN(c1nc(OC[C@@]23CCCN2C[C@H](F)C3)nc2c(F)c(-c3ccc(F)c4sc(N)c(C#N)c34)c(C(F)(F)F)cc12)[C@@H]1C[C@@H]2COC(=O)N2C1 [Compound 450] | 6.00 to 7.00

What follows are compounds tested on GP2d cells (KRAS G12D) (assay: Cell-based pERK HTRF assay in GP2d cell (Biological Example 2)). Conditions: GP2d (KRAS G12D) cells, pERK HTRF.
In short: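 60 min compound, 0.25% DMSO, 9-pt half-log curve from 1 μM or 100 nM; DMEM/10% FBS.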

SMILES | pIC50
CCC(=O)N1CC(N(C)c2nc(OCC34CCCN3CC(F)C4)nc3c(F)c(-c4ccc(F)c5sc(N)c(C#N)c45)c(C(F)(F)F)cc23)CC1C (stereo not drawn) [Compound 444] | > 7.00

Same assay, conditions: GP2d, GP2d (KRAS G12D) cells, pERK HTRF

SMILES | pIC50
C[C@@H]1C[C@H](N(C)c2nc(OC[C@@]34CCCN3C[C@H](F)C4)nc3c(F)c(-c4ccc(F)c5sc(N)c(C#N)c45)c(C(F)(F)F)cc23)CN1C(=O)C1CC1 [Compound 443] | > 7.00
CN(C)C(=O)c1nc2c(s1)CCN(c1nc(OCC34CCCN3CC(F)C4)nc3c(F)c(-c4ccc(F)c5sc(N)c(C#N)c45)c(C(F)(F)F)cc13)C2 (stereo not drawn) [Compound 445] | < 6.00
CCN(c1nc(OC[C@@]23CCCN2C[C@H](F)C3)nc2c(F)c(-c3ccc(F)c4sc(N)c(C#N)c34)c(C(F)(F)F)cc12)[C@H]1C[C@@H](C)N(C(C)=O)C1 [Compound 446] | > 7.00
CC(C)C(=O)N1C[C@@H](N(C)c2nc(OC[C@@]34CCCN3C[C@H](F)C4)nc3c(F)c(-c4ccc(F)c5sc(N)c(C#N)c45)c(C(F)(F)F)cc23)C[C@H]1C [Compound 448] | > 7.00
N#Cc1c(N)sc2c(F)ccc(-c3c(C(F)(F)F)cc4c(N5CCc6[nH]ncc6C5)nc(OCC56CCCN5CC(F)C6)nc4c3F)c12 (stereo not drawn) [Compound 449] | 6.00 to 7.00
CN(c1nc(OC[C@@]23CCCN2C[C@H](F)C3)nc2c(F)c(-c3ccc(F)c4sc(N)c(C#N)c34)c(C(F)(F)F)cc12)[C@@H]1C[C@@H]2COC(=O)N2C1 [Compound 450] | > 7.00

The compounds below were run on SW620 cells (KRAS G12V) (assay: Cell-based pERK HTRF assay in SW620 cell (Biological Example 4)). Conditions: Homo sapiens, SW-620, SW620 (KRAS G12V) cells, pERK HTRF.
In short: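 SW620 cells were treated for 4 h with compound in a 9-point half-log series from 1 μM top (0.25% DMSO), then lysed. Phospho-ERK was detected by HTRF with d2 and Eu cryptate antibodies after 4–24 h at room temperature, read at 615 nm emission.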

SMILES | pIC50
C[C@@H]1C[C@H](N(C)c2nc(OC[C@@]34CCCN3C[C@H](F)C4)nc3c(F)c(-c4ccc(F)c5sc(N)c(C#N)c45)c(C(F)(F)F)cc23)CN1C(=O)C1CC1 [Compound 443] | > 7.00
CN(C)C(=O)c1nc2c(s1)CCN(c1nc(OCC34CCCN3CC(F)C4)nc3c(F)c(-c4ccc(F)c5sc(N)c(C#N)c45)c(C(F)(F)F)cc13)C2 (stereo not drawn) [Compound 445] | 6.00 to 7.00
CCN(c1nc(OC[C@@]23CCCN2C[C@H](F)C3)nc2c(F)c(-c3ccc(F)c4sc(N)c(C#N)c34)c(C(F)(F)F)cc12)[C@H]1C[C@@H](C)N(C(C)=O)C1 [Compound 446] | > 7.00
CC(C)C(=O)N1C[C@@H](N(C)c2nc(OC[C@@]34CCCN3C[C@H](F)C4)nc3c(F)c(-c4ccc(F)c5sc(N)c(C#N)c45)c(C(F)(F)F)cc23)C[C@H]1C [Compound 448] | 6.00 to 7.00
N#Cc1c(N)sc2c(F)ccc(-c3c(C(F)(F)F)cc4c(N5CCc6[nH]ncc6C5)nc(OCC56CCCN5CC(F)C6)nc4c3F)c12 (stereo not drawn) [Compound 449] | 6.00 to 7.00
CN(c1nc(OC[C@@]23CCCN2C[C@H](F)C3)nc2c(F)c(-c3ccc(F)c4sc(N)c(C#N)c34)c(C(F)(F)F)cc12)[C@@H]1C[C@@H]2COC(=O)N2C1 [Compound 450] | > 7.00

Same assay, conditions: SW620 (KRAS G12V) cells, pERK HTRF

SMILES | pIC50
CCC(=O)N1CC(N(C)c2nc(OCC34CCCN3CC(F)C4)nc3c(F)c(-c4ccc(F)c5sc(N)c(C#N)c45)c(C(F)(F)F)cc23)CC1C (stereo not drawn) [Compound 444] | > 7.00
